Assay: xn = mol fraction of the nth substance listed, in the solute-free solvent

CC1(C)SC2C(NC(=O)C(NC(=O)N3CCNC3=O)c3ccccc3)C(=O)N2C1C(=O)O (stereo not drawn) + CO + CC(C)O
solubility (g/100 g solution)
Conditions	278.15 K	283.15 K	288.15 K	293.15 K	298.15 K	303.15 K	308.15 K	313.15 K	318.15 K	323.15 K
x2 = 0.1	0.0982	0.114	0.133	0.163	0.195	0.225	0.276	0.333	0.411	0.503
x2 = 0.199	0.115	0.133	0.155	0.196	0.228	0.289	0.344	0.425	0.516	0.639
x2 = 0.3	0.139	0.156	0.188	0.229	0.277	0.331	0.4	0.501	0.611	0.735
x2 = 0.4	0.156	0.173	0.202	0.247	0.299	0.361	0.455	0.551	0.673	0.832
x2 = 0.497	0.165	0.186	0.227	0.266	0.323	0.394	0.504	0.618	0.749	0.926
x2 = 0.6	0.186	0.22	0.255	0.298	0.374	0.448	0.55	0.678	0.811	0.994
x2 = 0.7	0.215	0.243	0.295	0.353	0.42	0.494	0.625	0.742	0.889	1.13
x2 = 0.8	0.251	0.297	0.35	0.43	0.49	0.584	0.732	0.868	1.09	1.34
x2 = 0.9	0.297	0.368	0.427	0.507	0.602	0.722	0.92	1.14	1.37	1.68

O=C1NS(=O)(=O)c2ccccc21 + CC#N + CCO
solubility (g/100 g solution)
Conditions	x2 = 0.0999	x2 = 0.2002	x2 = 0.2997	x2 = 0.3998	x2 = 0.5002	x2 = 0.5999	x2 = 0.7001	x2 = 0.7999	x2 = 0.8999
293.15 K	5.33	7.27	8.67	9.52	9.7	9.58	8.96	7.58	5.52
298.15 K	5.91	7.97	9.45	10.3	10.7	10.6	9.85	8.34	6.08
303.15 K	6.8	9.11	10.7	11.7	12.1	11.9	11.1	9.45	6.93
308.15 K	7.49	9.96	11.7	12.7	13.5	13.2	12.3	10.5	7.63
313.15 K	8.72	11.5	13.3	14.4	14.8	14.6	13.6	11.7	8.61
318.15 K	10.1	13.2	15.3	16.5	16.8	16.7	15.4	13.3	9.87
323.15 K	11.4	14.7	16.9	18.1	18.5	18.2	17	14.6	10.9

Source: the CheMixHub drug solubility set
